Read-outs that look alike come from different tables or passages of the source.
Assays:
SJNB-1 = assay: IncuCyte live-cell imaging, antiproliferative effect; assay type: cell-based; settings: Homo sapiens, 72 h, read-out: Cell GI50 72h
Procedure: The use of human cell lines in this study was approved by the Ethics Committee of Ghent University Hospital (EC/029-2022/sds). Human neuroblastoma cell lines NGP, IMR-32, SJNB-8, SK-N-BE(2)-C, SJNB-1, SK-N-SH and SK-N-AS, as well as benign immortalized cell lines RPE and HEK293T were either bought commercially or obtained through research laboratories. The neuroblastoma cell lines and HEK293T were cultured in RPMI 1640 medium (Gibco, #52400041) supplemented with 10% fetal bovine serum (Sigma-Aldrich, #F0804), 2 mM L-glutamine (Gibco, #11548876), and 100 IU/mL penicillin/streptomycin (Gibco, #11548876). RPE cells were cultured in DMEM-F12 (Gibco, #11594426), supplemented with 10% fetal bovine serum, 2 mM L-glutamine and 100 IU/mL penicillin/streptomycin. Screening for mycoplasma contamination occurred routinely on the cells. […]
Neuroblastoma cells were seeded in 384-well plates at different densities ranging from 1200 to 5000 cells/well and allowed to adhere overnight. […] Compound treatment was performed using the D300e Digital Dispenser (Tecan) in duplicate or triplicate and cell confluency was monitored over time using the IncuCyte Live-cell imaging system (Sartorius). […] Mean normalized confluences were calculated from 3 individual experiments. […]

RPE = assay: as above; assay type: cell-based

| Compound | GI50 (SJNB-1) | GI50 (RPE; 72 h, read-out: Cell GI50 72h) | GI50 (RPE; 72h, read-out: GI50) |
| --- | --- | --- | --- |
| Cc1cc(Nc2ccc(F)c(CC3(C(=O)N4CCC(CN5CCN(c6ccc(N7CCC(=O)NC7=O)cn6)CC5)CC4)CCN(Cc4cccc(Cl)c4F)CC3)n2)n[nH]1 [SK4454] | 13400 nM | 221 nM | – |
| Cc1cc(Nc2ccc(F)c(CC3(C(=O)N4CCC(F)(CN5CCN(c6ccc(N7CCC(=O)NC7=O)cn6)CC5)CC4)CCN(Cc4cccc(Cl)c4F)CC3)n2)n[nH]1 [SK5527] | 8640 nM | 460 nM | ~500 nM |
